SMILES strings stand for the structures.

The values below come from publication PMC7038226, “Discovery of Novel Inhibitors Targeting Multi-UDP-hexose Pyrophosphorylases as Anticancer Agents” (Molecules, 2020).

Holding throughout (assay type): biochemical
The target of assay [1] is T1, UGP2 (Homo sapiens, UniProt Q16851).
T1 construct: recombinant, expressed in E. coli HMS174(DE3), Ni-NTA purified; plasmid from earlier work
T1 sequence (Q16851 1-508): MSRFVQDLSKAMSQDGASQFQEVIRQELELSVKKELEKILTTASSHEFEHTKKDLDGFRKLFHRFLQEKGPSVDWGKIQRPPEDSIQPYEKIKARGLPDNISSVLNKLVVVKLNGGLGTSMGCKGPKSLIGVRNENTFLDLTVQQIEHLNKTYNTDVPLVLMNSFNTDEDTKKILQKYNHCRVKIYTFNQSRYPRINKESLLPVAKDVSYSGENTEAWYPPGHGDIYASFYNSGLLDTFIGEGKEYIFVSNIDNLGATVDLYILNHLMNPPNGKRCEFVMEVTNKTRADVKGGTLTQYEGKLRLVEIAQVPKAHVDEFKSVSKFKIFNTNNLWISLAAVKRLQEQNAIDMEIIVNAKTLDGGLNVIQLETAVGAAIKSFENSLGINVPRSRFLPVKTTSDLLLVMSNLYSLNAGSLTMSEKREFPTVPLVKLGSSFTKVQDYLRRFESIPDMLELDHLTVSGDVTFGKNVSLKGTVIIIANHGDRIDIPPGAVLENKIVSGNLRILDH
Kind of assay: enzyme inhibition assay. The settings on record: residual activity, not per cent inhibition; inhibitor 25 µM printed for GAL-012, assumed for analogue; 5 min preincubation. From the text: enzyme inhibition assay on UGP2

Assay [2] addresses T2, GALT (Homo sapiens, UniProt P07902).
T2 construct: recombinant, expressed in E. coli HMS174(DE3), Ni-NTA purified; plasmid from earlier work
Kind of assay: enzyme inhibition assay. The settings on record: residual activity, not per cent inhibition; inhibitor 25 µM printed for GAL-012, assumed for analogue; 5 min preincubation. The text has this: enzyme inhibition assay on GALT

The target in assay [3] is T1, UGP2. Kind of assay: enzyme inhibition assay. From the text:
enzyme inhibition assay on UGP2 | UDP-glucose pyrophosphorylase (UGP2)

Assay [4] addresses T3, AGX1/UAP1 (Homo sapiens, UniProt Q16222).
T3 construct: full-length, cDNA from HepG2 cells, pET30A(+) in E. coli HMS174(DE3), Ni-NTA purified
Kind of assay: enzyme inhibition assay. As to conditions: one value stated for GALT, UGP2 and AGX1/UAP1 together.

Assay [5] concerns the target T2, GALT. Kind of assay: enzyme inhibition assay. From the text:
enzyme inhibition assay on GALT | GAL-012, that inhibit a small family of UDP-hexose pyrophosphorylases-galactose pyro-phosphorylase (GALT)

Assay [6] addresses T2, GALT. Kind of assay: initial velocities, Lineweaver-Burk.

T2 sequence (P07902 whole entry): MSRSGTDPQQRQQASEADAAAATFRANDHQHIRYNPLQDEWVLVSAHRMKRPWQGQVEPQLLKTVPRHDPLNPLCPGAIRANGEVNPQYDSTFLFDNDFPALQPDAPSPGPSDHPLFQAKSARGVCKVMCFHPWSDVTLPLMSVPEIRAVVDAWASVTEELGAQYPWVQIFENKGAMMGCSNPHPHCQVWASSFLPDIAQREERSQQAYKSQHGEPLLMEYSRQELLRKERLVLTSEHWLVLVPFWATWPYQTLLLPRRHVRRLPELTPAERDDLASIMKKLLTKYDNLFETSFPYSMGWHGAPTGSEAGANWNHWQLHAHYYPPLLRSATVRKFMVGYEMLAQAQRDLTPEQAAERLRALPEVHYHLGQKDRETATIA
T3 sequence (Q16222 1-505 isoform Q16222-2): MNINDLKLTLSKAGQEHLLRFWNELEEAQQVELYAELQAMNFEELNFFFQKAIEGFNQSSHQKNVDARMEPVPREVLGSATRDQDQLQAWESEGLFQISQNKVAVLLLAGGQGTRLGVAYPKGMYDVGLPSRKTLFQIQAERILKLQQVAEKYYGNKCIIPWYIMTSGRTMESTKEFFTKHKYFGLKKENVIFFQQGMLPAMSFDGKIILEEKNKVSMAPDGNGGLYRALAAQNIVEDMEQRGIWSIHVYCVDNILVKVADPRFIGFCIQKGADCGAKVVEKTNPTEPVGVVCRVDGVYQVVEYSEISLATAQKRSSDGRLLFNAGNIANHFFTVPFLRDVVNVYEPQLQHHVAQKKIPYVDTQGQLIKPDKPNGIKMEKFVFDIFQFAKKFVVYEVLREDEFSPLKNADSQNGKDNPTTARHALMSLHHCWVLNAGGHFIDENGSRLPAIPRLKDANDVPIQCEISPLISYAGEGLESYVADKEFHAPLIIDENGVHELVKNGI

Turning to `CN(C)/C=C/C(=O)c1ccc2c(c1)C(C)(C)C(=O)N2C` [GAL-012-2], the “Enzyme Inhibitory Activity / UGP2” value in assay [1] turned out to be 63.8 ± 4%. The “Enzyme Inhibitory Activity / GALT” value in assay [2] was 63.4 ± 2.3%.
The IC50 is the concentration that gives 50% inhibition. Read a high IC50 as weaker potency in that assay. The term Ki denotes a measure of affinity in units of concentration, obtained from inhibition or displacement. With `CN1C(=O)C(C)(C)c2cc(-c3ccnc(N)n3)ccc21` [GAL-012], the concentration for half-maximal inhibition (IC50) in assay [3], in assay [4] and in assay [5] was 30 µM throughout. For the same molecule, the inhibition constant (Ki) in assay [6] was about 30 µM.
